Test results from ChEMBL document CHEMBL4304773, “Nitroimidazole-containing compounds and their antibacterial and antitubercular activities” (2019).
Converted amounts (≈) assume the structure as drawn. Blank lines part the entries; values can stand above or below the molecule they belong to.

Columns and labels:
Format in all cases: functional
[1] = test system: Staphylococcus aureus; experiment: Antibacterial activity against Staphylococcus aureus
[2] = test system: Streptococcus pyogenes; experiment: Antibacterial activity against Streptococcus pyogenes
[3] = test system: Pseudomonas aeruginosa; experiment: Antibacterial activity against Pseudomonas aeruginosa ATCC 27853 after 24 hrs by NCCLS method; conditions: ATCC 27853, 24 h
[4] = test system: Bacillus subtilis; experiment: Antibacterial activity against Bacillus subtilis ATCC 530 after 24 hrs by NCCLS method; conditions: ATCC 530, 24 h
[5] = test system: Staphylococcus aureus; experiment: Antibacterial activity against Staphylococcus aureus ATCC 25923 after 24 hrs by NCCLS method; conditions: ATCC 25923, 24 h
[6] = test system: Escherichia coli; experiment: Antibacterial activity against Escherichia coli ATCC 25922 after 24 hrs by NCCLS method; conditions: ATCC 25922, 24 h
[7] = test system: Helicobacter pylori; experiment: Antibacterial activity against Helicobacter pylori NCTC 11637
[8] = test system: Helicobacter pylori; experiment: Antibacterial activity against Helicobacter pylori
[9] = test system: Escherichia coli; experiment: Antibacterial activity against Escherichia coli infected in mouse
[10] = test system: Acinetobacter baumannii; experiment: Antibacterial activity against Acinetobacter baumannii
[11] = test system: Enterococcus faecalis; experiment: Antibacterial activity against Enterococcus faecalis
[12] = test system: Pseudomonas aeruginosa; experiment: Antibacterial activity against Pseudomonas aeruginosa ATCC 27853
[13] = test system: Staphylococcus aureus; experiment: Antibacterial activity against Staphylococcus aureus ATCC 29213
[14] = test system: Escherichia coli; experiment: Antibacterial activity against Escherichia coli ATCC 25922
[15] = test system: Staphylococcus aureus; experiment: Antibacterial activity against methicillin-resistant Staphylococcus aureus N315
[16] = test system: Pseudomonas aeruginosa; experiment: Antibacterial activity against Pseudomonas aeruginosa
[17] = test system: Klebsiella pneumoniae; experiment: Antibacterial activity against Klebsiella pneumoniae
[18] = test system: Staphylococcus aureus; experiment: Antibacterial activity against Staphylococcus aureus ATCC 25923
[19] = test system: Escherichia coli; experiment: Antibacterial activity against Escherichia coli

MIC [1]: 184 to 2890 µM (≈ 65 to 1020 µg/mL) | MIC [2]: 184 to 2890 µM (≈ 65 to 1020 µg/mL)
SMILES: Cc1nc([N+](=O)[O-])cn1Cc1nn(CN2CCN(C)CC2)c(=S)o1

MIC [3]: 3.12 to 50 µg/mL (≈ 6.4 to 103 µM) | MIC [4]: 3.12 to 50 µg/mL (≈ 6.4 to 103 µM) | MIC [5]: 3.12 to 50 µg/mL (≈ 6.4 to 103 µM) | MIC [6]: 3.12 to 50 µg/mL (≈ 6.4 to 103 µM)
SMILES: Cc1ccc(Oc2c(/C=N/NC(=O)Cn3c([N+](=O)[O-])cnc3C)c(C)nn2-c2ccc(C)cc2)cc1

SMILES: Cc1ncc([N+](=O)[O-])n1CCNCc1nonc1C#N
MIC90 [7]: 0.5 to 32 µg/mL (≈ 1.8 to 115 µM) | MIC90 [8]: 0.5 to 32 µg/mL (≈ 1.8 to 115 µM)

SMILES: CCn1cc(C(=O)OC)c(=O)c2cc(F)c(N3CCN(CCn4c([N+](=O)[O-])cnc4C)CC3)nc21
ED50 [9]: 3.5 to 13.2 mg/kg

MIC [1]: 184 to 2890 µM (≈ 74.6 to 1170 µg/mL) | MIC [2]: 184 to 2890 µM (≈ 74.6 to 1170 µg/mL)
SMILES: Cc1cc([N+](=O)[O-])ccc1NCn1nc(Cn2cc([N+](=O)[O-])nc2C)oc1=S

MIC [1]: 184 to 2890 µM (≈ 67.6 to 1060 µg/mL) | MIC [2]: 184 to 2890 µM (≈ 67.6 to 1060 µg/mL)
SMILES: CCN1CCN(Cn2nc(Cn3cc([N+](=O)[O-])nc3C)oc2=S)CC1

MIC [1]: 184 to 2890 µM (≈ 70.1 to 1100 µg/mL) | MIC [2]: 184 to 2890 µM (≈ 70.1 to 1100 µg/mL)
SMILES: Cc1nc([N+](=O)[O-])cn1Cc1nn(CNc2ccc(Cl)cc2)c(=S)o1

MIC [3]: 3.12 to 50 µg/mL (≈ 6.53 to 105 µM) | MIC [4]: 3.12 to 50 µg/mL (≈ 6.53 to 105 µM) | MIC [5]: 3.12 to 50 µg/mL (≈ 6.53 to 105 µM) | MIC [6]: 3.12 to 50 µg/mL (≈ 6.53 to 105 µM)
SMILES: Cc1nn(-c2ccccc2)c(Oc2ccc(F)cc2)c1/C=N/NC(=O)Cn1c([N+](=O)[O-])cnc1C

SMILES: NC1CCN(c2c(F)cc3c(=O)c(C(=O)O)cn(C4CC4)c3c2Cl)C1 (stereo not given) [CLINAFLOXACIN]
MIC [10]: 5 to 88 µM (≈ 1.83 to 32.2 µg/mL) | MIC [11]: 5 to 88 µM (≈ 1.83 to 32.2 µg/mL) | MIC [12]: 5 to 88 µM (≈ 1.83 to 32.2 µg/mL) | MIC [13]: 5 to 88 µM (≈ 1.83 to 32.2 µg/mL) | MIC [14]: 5 to 88 µM (≈ 1.83 to 32.2 µg/mL) | MIC [15]: 5 to 88 µM (≈ 1.83 to 32.2 µg/mL) | MIC [16]: 5 to 88 µM (≈ 1.83 to 32.2 µg/mL) | MIC [17]: 5 to 88 µM (≈ 1.83 to 32.2 µg/mL) | MIC [18]: 5 to 88 µM (≈ 1.83 to 32.2 µg/mL) | MIC [19]: 5 to 88 µM (≈ 1.83 to 32.2 µg/mL)

SMILES: CCn1cc(C(=O)O)c(=O)c2cc(F)c(N3CCN(CCn4c([N+](=O)[O-])cnc4C)CC3)cc21
ED50 [9]: 2.56 to 3.88 mg/kg

SMILES: CCCCN1CCN(c2ccc3c4c(cccc24)C(=O)N(CC(O)Cn2c([N+](=O)[O-])cnc2C)C3=O)CC1 (stereo not given)
MIC [10]: 13 to 1020 µM (≈ 6.77 to 531 µg/mL) | MIC [11]: 13 to 1020 µM (≈ 6.77 to 531 µg/mL) | MIC [12]: 13 to 1020 µM (≈ 6.77 to 531 µg/mL) | MIC [13]: 13 to 1020 µM (≈ 6.77 to 531 µg/mL) | MIC [14]: 13 to 1020 µM (≈ 6.77 to 531 µg/mL) | MIC [15]: 13 to 1020 µM (≈ 6.77 to 531 µg/mL) | MIC [16]: 13 to 1020 µM (≈ 6.77 to 531 µg/mL) | MIC [17]: 13 to 1020 µM (≈ 6.77 to 531 µg/mL) | MIC [18]: 13 to 1020 µM (≈ 6.77 to 531 µg/mL) | MIC [19]: 13 to 1020 µM (≈ 6.77 to 531 µg/mL)
